Consider seven cell lines from the supplement of paper PMC10307832.

What all share (test): relative viability (nuclei count vs DMSO), 5 days (fraction); higher = more cells survive
Compound in the experiment “Bemcentinib + Pemetrexed”: Nc1nc(Nc2ccc3c(c2)CC[C@@H](N2CCCC2)CC3)nn1-c1cc2c(nn1)-c1ccccc1CCC2 [Bemcentinib] + Nc1nc2[nH]cc(CCc3ccc(C(=O)N[C@@H](CCC(=O)O)C(=O)O)cc3)c2c(=O)[nH]1 [Pemetrexed] (partner 0.2 µM)
The gist of the method: (§1)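 Lung cancer cell lines in 1536-well plates were dosed by pin tool the day after seeding, either with one drug alone or with a fixed anchor-drug dose plus five library-drug doses (not always all listed) in √10 steps. After 5 days, cells were fixed and their nuclei stained in one step (final 0.05% Triton X-100, 1% formaldehyde, 1 ug/ml Hoechst), then counted on 4× images. Relative viability is the nuclei count in treated wells divided by that in vehicle wells. Values are medians of duplicate plates.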

Compound in the experiment “Bemcentinib + Crizotinib”: Nc1nc(Nc2ccc3c(c2)CC[C@@H](N2CCCC2)CC3)nn1-c1cc2c(nn1)-c1ccccc1CCC2 [Bemcentinib] + C[C@@H](Oc1cc(-c2cnn(C3CCNCC3)c2)cnc1N)c1c(Cl)ccc(F)c1Cl [Crizotinib] (partner 1 µM)
In a few lines: as §1

Compound in the experiment “Axitinib + Crizotinib”: CNC(=O)c1ccccc1Sc1ccc2c(/C=C/c3ccccn3)n[nH]c2c1 [Axitinib] + C[C@@H](Oc1cc(-c2cnn(C3CCNCC3)c2)cnc1N)c1c(Cl)ccc(F)c1Cl [Crizotinib] (partner 1 µM)
The gist of the method: as §1

Compound in the experiment “Bemcentinib + Luminespib”: Nc1nc(Nc2ccc3c(c2)CC[C@@H](N2CCCC2)CC3)nn1-c1cc2c(nn1)-c1ccccc1CCC2 [Bemcentinib] + CCNC(=O)c1noc(-c2cc(C(C)C)c(O)cc2O)c1-c1ccc(CN2CCOCC2)cc1 [Luminespib] (partner 0.01 µM)
In a few lines: as §1

For the cell line LCLC-103H, the relative viability was determined as 0.422 with Bemcentinib + Pemetrexed (first compound 0.04 µM); 0.478 in the experiment with Bemcentinib + Pemetrexed (first compound 0.1265 µM); 0.428 with Bemcentinib + Pemetrexed (first compound 0.4 µM); 0.455 in the experiment with Bemcentinib + Pemetrexed (first compound 1.265 µM); 0.434 in the experiment with Bemcentinib + Pemetrexed (first compound 4 µM); 1.05 with Bemcentinib + Crizotinib (first compound 0.04 µM). The relative viability with Bemcentinib + Crizotinib (first compound 0.1265 µM) was determined as 1.11; in the experiment with Bemcentinib + Crizotinib (first compound 0.4 µM), 1.04; in the experiment with Bemcentinib + Crizotinib (first compound 1.265 µM) it was 1.13; with Bemcentinib + Crizotinib (first compound 4 µM), 1.11; with Axitinib + Crizotinib (first compound 0.005 µM) it was 1.11; with Axitinib + Crizotinib (first compound 0.01581 µM), 1.13. Further, the relative viability turned out to be 1 in the experiment with Axitinib + Crizotinib (first compound 0.05 µM); 1.1 with Axitinib + Crizotinib (first compound 0.1581 µM); 1.06 in the experiment with Axitinib + Crizotinib (first compound 0.5 µM); 1.06 with Bemcentinib + Luminespib (first compound 0.04 µM); 1.15 with Bemcentinib + Luminespib (first compound 0.1265 µM); 0.94 in the experiment with Bemcentinib + Luminespib (first compound 0.4 µM). Besides, the relative viability with Bemcentinib + Luminespib (first compound 1.265 µM) turned out to be 1.11; with Bemcentinib + Luminespib (first compound 4 µM) it was 0.899.
On to LK-2, for which the relative viability was determined as 0.246 with Bemcentinib + Pemetrexed (first compound 0.04 µM); 0.323 in the experiment with Bemcentinib + Pemetrexed (first compound 0.1265 µM); 0.294 with Bemcentinib + Pemetrexed (first compound 0.4 µM); 0.256 with Bemcentinib + Pemetrexed (first compound 1.265 µM); 0.294 with Bemcentinib + Pemetrexed (first compound 4 µM); 0.217 with Bemcentinib + Crizotinib (first compound 0.04 µM). Further, the relative viability is 0.186 in the experiment with Bemcentinib + Crizotinib (first compound 0.1265 µM); 0.252 with Bemcentinib + Crizotinib (first compound 0.4 µM); 0.224 in the experiment with Bemcentinib + Crizotinib (first compound 1.265 µM); 0.234 with Bemcentinib + Crizotinib (first compound 4 µM); 0.235 with Axitinib + Crizotinib (first compound 0.005 µM); 0.264 with Axitinib + Crizotinib (first compound 0.01581 µM). Also, the relative viability in the experiment with Axitinib + Crizotinib (first compound 0.05 µM) worked out at 0.252; with Axitinib + Crizotinib (first compound 0.1581 µM), 0.219; with Axitinib + Crizotinib (first compound 0.5 µM) it was 0.216; in the experiment with Bemcentinib + Luminespib (first compound 0.04 µM), 0.218; in the experiment with Bemcentinib + Luminespib (first compound 0.1265 µM) it was 0.167; with Bemcentinib + Luminespib (first compound 0.4 µM), 0.151. The relative viability turned out to be 0.172 with Bemcentinib + Luminespib (first compound 1.265 µM) and 0.182 in the experiment with Bemcentinib + Luminespib (first compound 4 µM).
With LOU-NH91, the relative viability in the experiment with Bemcentinib + Pemetrexed (first compound 0.04 µM) stood at 0.408; with Bemcentinib + Pemetrexed (first compound 0.1265 µM) it was 0.369; with Bemcentinib + Pemetrexed (first compound 0.4 µM), 0.4; in the experiment with Bemcentinib + Pemetrexed (first compound 1.265 µM), 0.45; in the experiment with Bemcentinib + Pemetrexed (first compound 4 µM), 0.376; with Bemcentinib + Crizotinib (first compound 0.04 µM) it was 0.717. The relative viability with Bemcentinib + Crizotinib (first compound 0.1265 µM) was 0.726; in the experiment with Bemcentinib + Crizotinib (first compound 0.4 µM), 0.732; in the experiment with Bemcentinib + Crizotinib (first compound 1.265 µM) it was 0.753; with Bemcentinib + Crizotinib (first compound 4 µM), 0.756; with Axitinib + Crizotinib (first compound 0.005 µM) it was 0.765; with Axitinib + Crizotinib (first compound 0.01581 µM), 0.641. The relative viability with Axitinib + Crizotinib (first compound 0.05 µM) was 0.773; with Axitinib + Crizotinib (first compound 0.1581 µM), 0.697; with Axitinib + Crizotinib (first compound 0.5 µM), 0.78; in the experiment with Bemcentinib + Luminespib (first compound 0.04 µM) it was 0.293; with Bemcentinib + Luminespib (first compound 0.1265 µM) it was 0.414; in the experiment with Bemcentinib + Luminespib (first compound 0.4 µM), 0.354. The relative viability with Bemcentinib + Luminespib (first compound 1.265 µM) came to 0.303; with Bemcentinib + Luminespib (first compound 4 µM), 0.324.
Consider LU99A, for which the relative viability was determined as 0.139 with Bemcentinib + Pemetrexed (first compound 0.04 µM); 0.321 in the experiment with Bemcentinib + Pemetrexed (first compound 0.1265 µM); 0.241 in the experiment with Bemcentinib + Pemetrexed (first compound 0.4 µM); 0.154 in the experiment with Bemcentinib + Pemetrexed (first compound 1.265 µM); 0.16 with Bemcentinib + Pemetrexed (first compound 4 µM); 0.549 with Bemcentinib + Crizotinib (first compound 0.04 µM). Moreover, the relative viability in the experiment with Bemcentinib + Crizotinib (first compound 0.1265 µM) was determined as 0.629; with Bemcentinib + Crizotinib (first compound 0.4 µM) it was 0.542; with Bemcentinib + Crizotinib (first compound 1.265 µM), 0.574; with Bemcentinib + Crizotinib (first compound 4 µM), 0.532; in the experiment with Axitinib + Crizotinib (first compound 0.005 µM) it was 0.552; with Axitinib + Crizotinib (first compound 0.01581 µM) it was 0.541. For the same cell line, the relative viability in the experiment with Axitinib + Crizotinib (first compound 0.05 µM) turned out to be 0.628; with Axitinib + Crizotinib (first compound 0.1581 µM), 0.525; in the experiment with Axitinib + Crizotinib (first compound 0.5 µM), 0.648; with Bemcentinib + Luminespib (first compound 0.04 µM) it was 0.19; with Bemcentinib + Luminespib (first compound 0.1265 µM), 0.289; with Bemcentinib + Luminespib (first compound 0.4 µM) it was 0.234. The values for the relative viability with Bemcentinib + Luminespib (first compound 1.265 µM) and with Bemcentinib + Luminespib (first compound 4 µM) were 0.346 and 0.24, respectively.
With LXF-289, the relative viability with Bemcentinib + Pemetrexed (first compound 0.04 µM) is 0.907; in the experiment with Bemcentinib + Pemetrexed (first compound 0.1265 µM), 0.974; with Bemcentinib + Pemetrexed (first compound 0.4 µM), 0.984; in the experiment with Bemcentinib + Pemetrexed (first compound 1.265 µM), 0.993; in the experiment with Bemcentinib + Pemetrexed (first compound 4 µM), 0.92; with Bemcentinib + Crizotinib (first compound 0.04 µM) it was 0.88. The relative viability is 0.833 with Bemcentinib + Crizotinib (first compound 0.1265 µM); 0.817 with Bemcentinib + Crizotinib (first compound 0.4 µM); 0.791 in the experiment with Bemcentinib + Crizotinib (first compound 1.265 µM); 0.877 with Bemcentinib + Crizotinib (first compound 4 µM); 0.872 in the experiment with Axitinib + Crizotinib (first compound 0.005 µM); 0.799 in the experiment with Axitinib + Crizotinib (first compound 0.01581 µM). In addition, the relative viability came to 0.781 in the experiment with Axitinib + Crizotinib (first compound 0.05 µM); 0.781 with Axitinib + Crizotinib (first compound 0.1581 µM); 0.841 with Axitinib + Crizotinib (first compound 0.5 µM); 0.74 with Bemcentinib + Luminespib (first compound 0.04 µM); 0.78 with Bemcentinib + Luminespib (first compound 0.1265 µM); 0.703 with Bemcentinib + Luminespib (first compound 0.4 µM). In addition, the values for the relative viability with Bemcentinib + Luminespib (first compound 1.265 µM) and in the experiment with Bemcentinib + Luminespib (first compound 4 µM) were 0.653 and 0.665, respectively.
On to NCI-H23, for which the relative viability with Bemcentinib + Pemetrexed (first compound 0.04 µM) was determined as 0.626; in the experiment with Bemcentinib + Pemetrexed (first compound 0.1265 µM), 0.724; with Bemcentinib + Pemetrexed (first compound 0.4 µM), 0.941; with Bemcentinib + Pemetrexed (first compound 1.265 µM) it was 0.763; with Bemcentinib + Pemetrexed (first compound 4 µM), 0.738; with Bemcentinib + Crizotinib (first compound 0.04 µM) it was 0.493. For the same cell line, the relative viability stood at 0.608 with Bemcentinib + Crizotinib (first compound 0.1265 µM); 0.522 with Bemcentinib + Crizotinib (first compound 0.4 µM); 0.613 with Bemcentinib + Crizotinib (first compound 1.265 µM); 0.482 with Bemcentinib + Crizotinib (first compound 4 µM); 0.532 in the experiment with Axitinib + Crizotinib (first compound 0.005 µM); 0.529 with Axitinib + Crizotinib (first compound 0.01581 µM). Besides, the relative viability came to 0.619 in the experiment with Axitinib + Crizotinib (first compound 0.05 µM); 0.436 in the experiment with Axitinib + Crizotinib (first compound 0.1581 µM); 0.656 with Axitinib + Crizotinib (first compound 0.5 µM); 0.197 in the experiment with Bemcentinib + Luminespib (first compound 0.04 µM); 0.233 with Bemcentinib + Luminespib (first compound 0.1265 µM); 0.192 with Bemcentinib + Luminespib (first compound 0.4 µM). Moreover, the relative viability with Bemcentinib + Luminespib (first compound 1.265 µM) came to 0.224; with Bemcentinib + Luminespib (first compound 4 µM), 0.214.
For the cell line NCI-H322M, the relative viability with Bemcentinib + Pemetrexed (first compound 0.04 µM) amounted to 0.625; with Bemcentinib + Pemetrexed (first compound 0.1265 µM), 0.633; in the experiment with Bemcentinib + Pemetrexed (first compound 0.4 µM), 0.659; with Bemcentinib + Pemetrexed (first compound 1.265 µM), 0.704; with Bemcentinib + Pemetrexed (first compound 4 µM), 0.618; with Bemcentinib + Crizotinib (first compound 0.04 µM) it was 1.02. Also, the relative viability with Bemcentinib + Crizotinib (first compound 0.1265 µM) was determined as 0.971; with Bemcentinib + Crizotinib (first compound 0.4 µM), 0.944; with Bemcentinib + Crizotinib (first compound 1.265 µM), 1.05; with Bemcentinib + Crizotinib (first compound 4 µM), 1.09; in the experiment with Axitinib + Crizotinib (first compound 0.005 µM), 0.889; in the experiment with Axitinib + Crizotinib (first compound 0.01581 µM) it was 0.828. Moreover, the relative viability with Axitinib + Crizotinib (first compound 0.05 µM) was determined as 0.926; in the experiment with Axitinib + Crizotinib (first compound 0.1581 µM) it was 0.888; with Axitinib + Crizotinib (first compound 0.5 µM) it was 0.889; in the experiment with Bemcentinib + Luminespib (first compound 0.04 µM), 0.828; with Bemcentinib + Luminespib (first compound 0.1265 µM) it was 0.943; with Bemcentinib + Luminespib (first compound 0.4 µM) it was 0.835. The relative viability in the experiment with Bemcentinib + Luminespib (first compound 1.265 µM) was found to be 0.817; in the experiment with Bemcentinib + Luminespib (first compound 4 µM) it was 0.804.
